According to patent US9073855B2, “BCL-2 selective apoptosis-inducing agents for the treatment of cancer and immune diseases” (AbbVie Inc., priority 2008, dated 2015):

Legend:
GST-Bcl-XL = GST-Bcl-XL (Homo sapiens, UniProt Q07817); assay: TR-FRET binding assay, GST-Bcl-XL with F-Bak peptide probe; details: TR-FRET Binding Affinity, GST-Bcl-XL, F-Bak peptide probe
Method: (§1) Tb-anti-GST antibody was purchased from Invitrogen (Catalog No. PV4216).
(§2) Representative compounds were serially diluted in dimethyl sulfoxide (DMSO) starting at 50 μM (2× starting concentration; 10% DMSO) and 10 μL were transferred into a 384-well plate.
(§3) The samples were then mixed on a shaker for 1 minute and incubated for an additional 3 hours at room temperature. For each assay, the probe/antibody and protein/probe/antibody were included on each assay plate as negative and positive controls, respectively. Fluorescence was measured on the ENVISION plate reader (Perkin Elmer) using a 340/35 nm excitation filter and 520/525 (F-Bak peptide) and 495/510 nm (Tb-labeled […] antibody) emission filters.
(§4) The inhibition constant (Ki) is the dissociation constant of an enzyme-inhibitor complex or a protein/small molecule complex, wherein the small molecule is inhibiting binding of one protein to another protein or peptide. […] Inhibition constants were determined using Wang's equation (Wang Z-X., An Exact Mathematical Expression For Describing Competitive Binding Of Two Different Ligands To A Protein Molecule. FEBS Lett. 1995, 360:111-4).

GST-Bcl-2 = GST-Bcl-2 (Homo sapiens, UniProt P10415); assay: TR-FRET binding assay, GST-Bcl-2 with F-Bak peptide probe; details: TR-FRET Binding Affinity
GST-Bcl-2, sequence (P10415 whole entry): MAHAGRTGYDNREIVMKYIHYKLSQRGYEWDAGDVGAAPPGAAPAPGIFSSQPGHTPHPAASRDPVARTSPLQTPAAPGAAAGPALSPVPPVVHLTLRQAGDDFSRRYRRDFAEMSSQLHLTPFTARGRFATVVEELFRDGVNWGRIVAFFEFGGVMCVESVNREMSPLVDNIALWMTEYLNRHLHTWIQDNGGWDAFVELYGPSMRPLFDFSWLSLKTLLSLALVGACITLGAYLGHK
Method: as §1, §2, §3, §4

GST-Bcl-XL, sequence (Q07817 whole entry): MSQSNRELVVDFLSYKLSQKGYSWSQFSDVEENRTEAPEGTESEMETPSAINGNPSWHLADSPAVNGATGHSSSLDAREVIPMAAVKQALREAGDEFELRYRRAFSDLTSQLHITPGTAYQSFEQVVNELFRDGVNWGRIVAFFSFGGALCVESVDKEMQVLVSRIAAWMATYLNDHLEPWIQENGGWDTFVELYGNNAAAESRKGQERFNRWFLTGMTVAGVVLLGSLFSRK

SMILES | Ki (GST-Bcl-XL) [nM] | Ki (GST-Bcl-2; GST-Bcl-2, F-Bak peptide probe) [nM] | Ki (GST-Bcl-2) [nM]
O=C(NS(=O)(=O)c1ccc(NCC2CCOCC2)c([N+](=O)[O-])c1)c1ccc(N2CCN(Cc3ccccc3-c3ccc(Cl)cc3)CC2)cc1Oc1ccccc1 [Example 1, 4-{4-[(4′-chloro-1,1′-biphenyl-2-yl)methyl]piperazin-1-yl}-N-({3-nitro-4-[(tetrahydro-2H-pyran-4-ylmethyl)amino]phenyl}sulfonyl)-2-phenoxybenzamide] | 578 | 6.77 | –
CC1(C)CCC(c2ccc(Cl)cc2)=C(CN2CCN(c3ccc(C(=O)NS(=O)(=O)c4ccc(NCCCN5CCOCC5)c([N+](=O)[O-])c4)c(Oc4ccccc4)c3)CC2)C1 [Example 19, 4-(4-{[2-(4-chlorophenyl)-5,5-dimethylcyclohex-1-en-1-yl]methyl}piperazin-1-yl)-N-({4-[(3-morpholin-4-ylpropyl)amino]-3-nitrophenyl}sulfonyl)-2-phenoxybenzamide] | 20 | 0.847 | –
CC1(C)CCC(CN2CCN(c3ccc(C(=O)NS(=O)(=O)c4ccc(NCCCN5CCOCC5)c([N+](=O)[O-])c4)c(Oc4ccc5[nH]ncc5c4)c3)CC2)=C(c2ccc(Cl)cc2)C1 [Example 20, 4-(4-{[2-(4-chlorophenyl)-4,4-dimethylcyclohex-1-en-1-yl]methyl}piperazin-1-yl)-2-(1H-indazol-5-yloxy)-N-({4-[(3-morpholin-4-ylpropyl)amino]-3-nitrophenyl}sulfonyl)benzamide] | 77.6 | 2.36 | –
O=C(NS(=O)(=O)c1ccc(N2C(=O)C3CCC3C2=O)cc1)c1ccc(N2CCN(Cc3ccccc3-c3ccc(Cl)cc3)CC2)cc1Oc1ccccc1 (centres unmarked) [Example 28, 4-{4-[(4′-chloro-1,1′-biphenyl-2-yl)methyl]piperazin-1-yl}-N-{[4-(2,4-dioxo-3-azabicyclo[3.2.0]hept-3-yl)phenyl]sulfonyl}-2-phenoxybenzamide] | > 660 | 33.7 | –
CC1CC(=O)NN=C1c1ccc(S(=O)(=O)NC(=O)c2ccc(N3CCN(Cc4ccccc4-c4ccc(Cl)cc4)CC3)cc2Oc2ccccc2)cc1 (centres unmarked) [Example 29, 4-{4-[(4′-chloro-1,1′-biphenyl-2-yl)methyl]piperazin-1-yl}-N-{[4-(4-methyl-6-oxo-1,4,5,6-tetrahydropyridazin-3-yl)phenyl]sulfonyl}-2-phenoxybenzamide] | > 660 | 11.9 | –
CC1(C)CN(c2ccc(S(=O)(=O)NC(=O)c3ccc(N4CCN(Cc5ccccc5-c5ccc(Cl)cc5)CC4)cc3Oc3ccccc3)cc2)C1=O [Example 30, 4-{4-[(4′-chloro-1,1′-biphenyl-2-yl)methyl]piperazin-1-yl}-N-{[4-(3,3-dimethyl-2-oxoazetidin-1-yl)phenyl]sulfonyl}-2-phenoxybenzamide] | > 660 | 103 | –
O=C(NS(=O)(=O)c1ccc(-n2ncc([N+](=O)[O-])n2)cc1)c1ccc(N2CCN(Cc3ccccc3-c3ccc(Cl)cc3)CC2)cc1Oc1ccccc1 [Example 31, 4-{4-[(4′-chloro-1,1′-biphenyl-2-yl)methyl]piperazin-1-yl}-N-{[4-(4-nitro-2H-1,2,3-triazol-2-yl)phenyl]sulfonyl}-2-phenoxybenzamide] | > 660 | 36.6 | –
O=C(NS(=O)(=O)c1ccccc1OCCN1CCCCC1)c1ccc(N2CCN(Cc3ccccc3-c3ccc(Cl)cc3)CC2)cc1Oc1ccccc1 [Example 32, 4-{4-[(4′-chloro-1,1′-biphenyl-2-yl)methyl]piperazin-1-yl}-2-phenoxy-N-{[2-(2-piperidin-1-ylethoxy)phenyl]sulfonyl}benzamide] | > 660 | 61.1 | –
CCN1CCCC1CNC(=O)c1cc(S(=O)(=O)NC(=O)c2ccc(N3CCN(Cc4ccccc4-c4ccc(Cl)cc4)CC3)cc2Oc2ccccc2)ccc1OC (centres unmarked) [Example 33, 4-{4-[(4′-chloro-1,1′-biphenyl-2-yl)methyl]piperazin-1-yl}-N-{[3-({[(1-ethylpyrrolidin-2-yl)methyl]amino}carbonyl)-4-methoxyphenyl]sulfonyl}-2-phenoxybenzamide] | 333 | 6.68 | –
O=C(NS(=O)(=O)c1ccc(NCC2CCOCC2)c([N+](=O)[O-])c1)c1ccc(N2CCN(Cc3ccccc3-c3ccc(Cl)cc3)CC2)cc1Oc1cccc2ccccc12 [Example 34, 4-{4-[(4′-chloro-1,1′-biphenyl-2-yl)methyl]piperazin-1-yl}-2-(1-naphthyloxy)-N-({3-nitro-4-[(tetrahydro-2H-pyran-4-ylmethyl)amino]phenyl}sulfonyl)benzamide] | 88 | 1.99 | –
O=C(NS(=O)(=O)c1ccc(NCCCN2CCOCC2)c([N+](=O)[O-])c1)c1ccc(N2CCN(Cc3ccccc3-c3ccc(Cl)cc3)CC2)cc1Oc1ccc2[nH]ccc2c1 [Example 59, 4-{4-[(4′-chloro-1,1′-biphenyl-2-yl)methyl]piperazin-1-yl}-2-(1H-indol-5-yloxy)-N-({4-[(3-morpholin-4-ylpropyl)amino]-3-nitrophenyl}sulfonyl)benzamide] | 1260 | – | –
CN1[C@@H]2CC[C@H]1CC(Nc1ccc(S(=O)(=O)NC(=O)c3ccc(N4CCN(CC5=C(c6ccc(Cl)cc6)CC(C)(C)CC5)CC4)cc3Oc3ccc4[nH]ccc4c3)cc1[N+](=O)[O-])C2 (stereo partly drawn) [Example 467, 4-(4-{[2-(4-chlorophenyl)-4,4-dimethylcyclohex-1-en-1-yl]methyl}piperazin-1-yl)-2-(1H-indol-5-yloxy)-N-[(4-{[(1R,5S)-8-methyl-8-azabicyclo[3.2.1]oct-3-yl]amino}-3-nitrophenyl)sulfonyl]benzamide] | – | – | 0.08
COCC1(C)CCC(c2ccc(Cl)cc2)=C(CN2CCN(c3ccc(C(=O)NS(=O)(=O)c4cnc(OCC5CCC(C)(O)CC5)c(Cl)c4)c(Oc4cccc5[nH]ncc45)c3)CC2)C1 (stereo not drawn) [Example 539, N-({5-chloro-6-[(trans-4-hydroxy-4-methylcyclohexyl)methoxy]pyridin-3-yl}sulfonyl)-4-(4-{[2-(4-chlorophenyl)-5-(methoxymethyl)-5-methylcyclohex-1-en-1-yl]methyl}piperazin-1-yl)-2-(1H-indazol-4-yloxy)benzamide] | – | – | < 0.01
CC1(C)CCC(CN2CCN(c3ccc(C(=O)NS(=O)(=O)c4ccc(NC[C@H]5CN(C6COC6)CCO5)c([N+](=O)[O-])c4)c(Oc4cccc5[nH]ncc45)c3)CC2)=C(c2ccc(Cl)cc2)C1 [Example 540, 4-(4-{[2-(4-chlorophenyl)-4,4-dimethylcyclohex-1-en-1-yl]methyl}piperazin-1-yl)-2-(1H-indazol-4-yloxy)-N-{[3-nitro-4-({[(2S)-4-(oxetan-3-yl)morpholin-2-yl]methyl}amino)phenyl]sulfonyl}benzamide] | – | – | < 0.01
CC1(C)CCC(CN2CCN(c3ccc(C(=O)NS(=O)(=O)c4ccc(NC[C@H]5CN(C6COC6)CCO5)c([N+](=O)[O-])c4)c(Oc4cccc5[nH]cnc45)c3)CC2)=C(c2ccc(Cl)cc2)C1 [Example 541, 2-(1H-benzimidazol-4-yloxy)-4-(4-{[2-(4-chlorophenyl)-4,4-dimethylcyclohex-1-en-1-yl]methyl}piperazin-1-yl)-N-{[3-nitro-4-({[(2S)-4-(oxetan-3-yl)morpholin-2-yl]methyl}amino)phenyl]sulfonyl}benzamide] | – | – | 0.167
CC1(C)CCC(CN2CCN(c3ccc(C(=O)NS(=O)(=O)c4cnc(OCC5CCC(C)(O)CC5)c(C#N)c4)c(Oc4cccc5[nH]ncc45)c3)CC2)=C(c2ccc(Cl)cc2)C1 (stereo not drawn) [Example 544, 4-(4-{[2-(4-chlorophenyl)-4,4-dimethylcyclohex-1-en-1-yl]methyl}piperazin-1-yl)-N-({5-cyano-6-[(trans-4-hydroxy-4-methylcyclohexyl)methoxy]pyridin-3-yl}sulfonyl)-2-(1H-indazol-4-yloxy)benzamide] | – | – | < 0.01
CC1(C)CCC(CN2CCN(c3ccc(C(=O)NS(=O)(=O)c4cnc(OCC5(F)CCC(C#N)CC5)c(Cl)c4)c(Oc4cccc5[nH]ncc45)c3)CC2)=C(c2ccc(Cl)cc2)C1 (stereo not drawn) [Example 549, N-({5-chloro-6-[(cis-4-cyano-1-fluorocyclohexyl)methoxy]pyridin-3-yl}sulfonyl)-4-(4-{[2-(4-chlorophenyl)-4,4-dimethylcyclohex-1-en-1-yl]methyl}piperazin-1-yl)-2-(1H-indazol-4-yloxy)benzamide] | – | – | < 0.01
COC1(C)CCC(c2ccc(Cl)cc2)=C(CN2CCN(c3ccc(C(=O)NS(=O)(=O)c4cnc(OCC5CCC(C)(O)CC5)c(Cl)c4)c(Oc4cccc5[nH]ncc45)c3)CC2)C1 (stereo not drawn) [Example 553, N-({5-chloro-6-[(trans-4-hydroxy-4-methylcyclohexyl)methoxy]pyridin-3-yl}sulfonyl)-4-(4-{[2-(4-chlorophenyl)-5-methoxy-5-methylcyclohex-1-en-1-yl]methyl}piperazin-1-yl)-2-(1H-indazol-4-yloxy)benzamide] | – | – | < 0.01
CC1(C)CCC(CN2CCN(c3ccc(C(=O)NS(=O)(=O)c4cnc(NCC5CCC(C)(O)CC5)c([N+](=O)[O-])c4)c(Oc4cccc5[nH]ncc45)c3)CC2)=C(c2ccc(Cl)cc2)C1 (stereo not drawn) [Example 555, 4-(4-{[2-(4-chlorophenyl)-4,4-dimethylcyclohex-1-en-1-yl]methyl}piperazin-1-yl)-N-[(6-{[(cis-4-hydroxy-4-methylcyclohexyl)methyl]amino}-5-nitropyridin-3-yl)sulfonyl]-2-(H-indazol-4-yloxy)benzamide] | – | – | < 0.01
